Earlier results, collected in the CATMoS acute toxicity set (Mansouri et al. 2021).
“And” between values parts separate entries of the source, which are not always exact repeats. Equal entries are not always repeated.

Assay: rat acute oral toxicity
Conditions: in vivo

Row | Structure (SMILES) | LD50
1 | O=C1CN=C(c2ccccc2)c2cc([N+](=O)[O-])ccc2N1 | 825 mg/kg
2 | O=[N+]([O-])c1cc(Br)c2nc(C(F)(F)F)[nH]c2c1 | 14.5 mg/kg
3 | CCC(C)Nc1ccc(NC(C)CC)cc1 (stereo unspecified) | 148 mg/kg
4 | Nc1nc(N)nc(-c2cc(Cl)ccc2Cl)n1 | 2900 mg/kg
5 | CCOc1cc(Cc2cnc(N)nc2N)cc(OCC)c1-n1cccc1 | 1420 mg/kg
6 | CCc1ccc(CCO)nc1 | 4290 mg/kg
7 | [O-][n+]1cc[n+]([O-])c2ccccc21 | 500 mg/kg
8 | CSN(C)C(=O)Oc1cccc2c1OC(C)(C)C2 | 5 mg/kg
9 | CCC(CC(C)CC)=NO (stereo unspecified) | 3800 mg/kg
10 | CCN(CC)CCOC(=O)c1ccc(N)cc1 | 200 mg/kg
11 | Clc1cc2c(c(Cl)c1Cl)Oc1c(Cl)c(Cl)c(Cl)c(Cl)c1O2 | 6.33 mg/kg
12 | O=C(O)CCCc1ccc(N(CCCl)CCCl)cc1 | 76 mg/kg
13 | CC(C)NC(=O)OCC(O)C1COc2ccccc2O1 (stereo unspecified) | 1500 mg/kg
14 | CCOC(=O)c1ccc(N)cc1 | 3040 mg/kg
15 | COP(=S)(OC)SC1CCSc2ccc(Cl)cc21 (stereo unspecified) | 200 mg/kg
16 | CC(=O)CO | 2200 mg/kg
17 | CCC(=O)OCCOc1ccccc1 | 4400 mg/kg
18 | Cc1ccc(N2C(=O)C=CC2=O)cc1 | 710 mg/kg
19 | c1cc2c(cc1CCC(CCc1ccc3c(c1)OCO3)N1CCCC1)OCO2 | 565 mg/kg
20 | CCOC(=O)COC(=O)c1cc(Oc2ccc(C(F)(F)F)cc2Cl)ccc1[N+](=O)[O-] | 1480 mg/kg
21 | Cc1cccc(C(C)C)c1 | 2970 mg/kg
22 | CCOP(=O)(OCC)ON1C(=O)c2cccc3cccc(c23)C1=O | 70 mg/kg
23 | NC[C@@H]1O[C@H](O[C@H]2[C@@H](O)[C@H](O[C@@H]3[C@@H](O)[C@H](N)C[C@H](N)[C@H]3O[C@H]3O[C@H](CO)[C@@H](O)[C@H](O)[C@H]3N)O[C@@H]2CO)[C@H](N)[C@@H](O)[C@@H]1O | 21600 mg/kg
24 | O=c1nc(O)n(Cl)c(=O)n1Cl | 1220 mg/kg

Row | Structure (SMILES) | LD50
25 | CCOP(=O)(Oc1ccc([N+](=O)[O-])cc1)SCC (stereo unspecified) | 17.9 mg/kg
26 | N#CCCC1CN2CCc3cc4c(cc3C2CC1=O)OCO4 (stereo unspecified) | 1410 mg/kg
27 | O=C(CCC1CCN(Cc2ccccc2)CC1)c1ccc2c(c1)NCCCC2 | 334 mg/kg
28 | CCc1ncc(C)nc1C | 456 mg/kg
29 | CC(C)COCCO | 400 mg/kg
30 | CCOP(=S)(OCC)SCN1C(=O)c2ccccc2C1=O | 43 mg/kg
31 | C=COCCOCCO | 4930 mg/kg
32 | COc1cc2ccc(=O)oc2cc1OC | 292 mg/kg
33 | CN(c1ccc(Cl)cc1Br)c1c([N+](=O)[O-])cc([N+](=O)[O-])cc1C(F)(F)F | 4.5 mg/kg
34 | O=C(Cl)OCc1ccccc1 | 3000 mg/kg
35 | CC(=O)C=CC1=C(C)CCCC1(C)C | 4590 mg/kg
36 | CC(C)CC(=O)CC1(C)CCC(c2ccoc2)O1 (stereo unspecified) | 350 mg/kg
37 | NCCC[C@H](N)C(=O)O | 10000 mg/kg
38 | CC(C)(O)CCc1ccccc1 | 2200 mg/kg
39 | C[C@]12CCC(=O)C=C1CC[C@@H]1[C@@H]2[C@@H](O)C[C@@]2(C)[C@H]1CC[C@]2(O)C(=O)COP(=O)(O)O | 6100 mg/kg
40 | Nc1c(/N=N/c2ccc([N+](=O)[O-])cc2)c(S(=O)(=O)O)cc2cc(S(=O)(=O)O)c(/N=N/c3ccc(-c4ccc(/N=N/c5ccc(O)cc5)cc4)cc3)c(O)c12 | 14700 mg/kg
41 | c1nc(NC2CC2)c2ncn(C3CC3)c2n1 | 130 mg/kg
42 | CN(C)S(=O)(=O)CCCCNC(=O)N(CCCl)N=O | 250 mg/kg
43 | CCOP(=S)(OCC)Oc1cc(C)[nH]n1 | 12 mg/kg
44 | CC(C)Oc1ccccc1[N+](=O)[O-] | 2500 mg/kg
45 | Oc1ccc2ccccc2c1Cl | 2310 mg/kg
46 | Cc1cc(Cl)ccc1N=CN(C)C | 160 mg/kg
47 | C[C@H]1C[C@H]2[C@@H]3CCC4=CC(=O)C=C[C@]4(C)[C@@]3(F)[C@@H](O)C[C@]2(C)[C@@]1(O)C(=O)COP(=O)(O)O | 1880 mg/kg
48 | CCSP(=O)(OC)OC | 13.8 mg/kg

Row | Structure (SMILES) | LD50
49 | ClC(Cl)C(Cl)(Cl)Cl | 920 mg/kg
50 | NC(=S)c1c(Cl)cccc1Cl | 757 mg/kg
51 | CN1c2ccccc2Sc2ccc(CC(=O)O)cc21 | 495 mg/kg
52 | O=C1C(=C(Cl)Cl)C(=O)C2(Cl)C3C=CC(C3)C12Cl (stereo unspecified) | 2760 mg/kg
53 | CC1=CCC2CC1C2(C)C (stereo unspecified) | 3700 mg/kg
54 | CCNP(=S)(OC)Oc1cc(Cl)c(Cl)cc1Cl (stereo unspecified) | 450 mg/kg
55 | CN(C)c1ccc(N)cc1 | 48 mg/kg
56 | CC1=C(C(=O)OCCN2CCN(C(c3ccccc3)c3ccccc3)CC2)C(c2cccc([N+](=O)[O-])c2)C(P2(=O)OCC(C)(C)CO2)=C(C)N1 (stereo unspecified) | 194 mg/kg
57 | ClC(Cl)C(Cl)C(Cl)C(Cl)Cl (stereo unspecified) | 400 mg/kg
58 | CN(N=O)C(N)=O | 110 mg/kg
59 | CCCCc1ccc(O)c(C(=O)Nc2cccc(C(F)(F)F)c2)c1 | 2500 mg/kg
60 | CCOP(=S)(OCC)N1C(=O)c2ccccc2C1=O | 4930 mg/kg
61 | CCC(C)OCCO (stereo unspecified) | 790 mg/kg
62 | CCOC(=O)C1(c2ccccc2)CCN(C)CC1 | 170 mg/kg
63 | Cc1ccc(S(=O)(=O)/C=C/C#N)cc1 | 1440 mg/kg
64 | CCCNC(=O)c1sc(-c2cc(OC)c(OC)c(OC)c2)nc1C | 5600 mg/kg
65 | O=C(O)Cc1cc(I)c(Oc2cc(I)c(O)c(I)c2)c(I)c1 | 0.825 mg/kg
66 | Cc1cc(-c2ccccc2)n[nH]1 | 1800 mg/kg
67 | O[C@H](c1cc(-c2ccc(C(F)(F)F)cc2)nc(C(F)(F)F)c1)[C@H]1CCCCN1 | 518 mg/kg
68 | O=S(=O)(O)c1cccc2c(S(=O)(=O)O)cccc12 | 30000 mg/kg
69 | FC(F)(F)c1cccc(OCC2CNC(=S)O2)c1 (stereo unspecified) | 524 mg/kg
70 | COCCC#N | 4390 mg/kg
71 | CCCCCC1=C(C)CCC1=O | 2500 mg/kg
72 | CCOC(=O)C=C(C)C | 11600 mg/kg

Row | Structure (SMILES) | LD50
73 | CC1(C)SCN(C(=O)C2(Oc3ccc(Cl)cc3)CCCCC2)C1C(=O)O (stereo unspecified) | 4350 mg/kg
74 | CC(C)/N=c1/cc2n(-c3ccc(Cl)cc3)c3ccccc3nc-2cc1Nc1ccc(Cl)cc1 | 8400 mg/kg
75 | CCOC(=O)C(C(C)=O)C(=O)Cc1c(C)n(C(=O)c2ccc(Cl)cc2)c2ccc(OC)cc12 (stereo unspecified) | 175 mg/kg
76 | CCSC(C)CC1CC(=O)C(C(=O)CC)C(=O)C1 (stereo unspecified) | 170 mg/kg
77 | CC1Cc2cc3c(cc2C(c2ccc(N)cc2)=NN1)OCO3 (stereo unspecified) | 350 mg/kg
78 | O=C(NCNC(=O)NC1C(=O)NC(=O)N1CO)NC1C(=O)NC(=O)N1CO (stereo unspecified) | 11300 mg/kg
79 | O=c1[nH]ncc2ccccc12 | 370 mg/kg
80 | O=C(Nc1cc(Cl)cc(Cl)c1O)c1c(O)c(Cl)cc(Cl)c1Cl | 1000 mg/kg
81 | CCOP(=S)(OCC)SCSc1ccc(Cl)c(Cl)c1 | 89 mg/kg
82 | SCCS | 120 mg/kg
83 | COc1c(C(C)(C)C)cc([N+](=O)[O-])c(C)c1[N+](=O)[O-] | 339 mg/kg
84 | NC(N)=NC(N)=NCc1ccccc1 | 481 mg/kg
85 | Cn1c([N+](=O)[O-])cnc1COC(N)=O | 3400 mg/kg
86 | CC(C)c1ccnc2ccccc12 | 940 mg/kg
87 | O=C1c2ccccc2-c2ccc3c4c(ccc1c24)-c1c(Br)ccc(Br)c1C3=O | 3570 mg/kg
88 | CCCCOCCOCC | 2830 mg/kg
89 | CCOC(=O)C1=CN(CC)C2CCCC(C)N2C1=O (stereo unspecified) | 746 mg/kg
90 | CC(C)c1c(C(=O)c2cccnc2)c2ccccc2n1C | 2400 mg/kg
91 | CN1CCCCC1CCN1c2ccccc2Sc2ccc(Br)cc21 (stereo unspecified) | 900 mg/kg
92 | Ic1ccc(Nc2nnc(CCN3c4ccccc4Sc4ccccc43)s2)cc1 | 3100 mg/kg
93 | CCCCN(CC)N=O | 380 mg/kg
94 | Nc1ccc(I)cc1 | 523 mg/kg
95 | Cc1ccc2c(-c3cccc(O)c3)nc(=O)n(C(C)C)c2c1 | 1600 mg/kg
96 | C1=CCC(C2OCC3(CC=CCC3)CO2)CC1 (stereo unspecified) | 5190 mg/kg

Row | Structure (SMILES) | LD50
97 | C=C1C(C)(C)C2(Cl)C(Cl)(Cl)C(Cl)(Cl)C1(Cl)C2(Cl)Cl (stereo unspecified) | 40 mg/kg
98 | C=CCNP(=O)(OC=C(Cl)Cl)OC1CCCCC1 (stereo unspecified) | 100 mg/kg
99 | COP(=O)(OC)SC(P(=O)(OC)OC)=P(OC)(OC)OC | 38 mg/kg
100 | c1cc2c(cc1C1CCCCC1)c1c3n2CCNC3CCC1 (stereo unspecified) | 3070 mg/kg
101 | O=C(OCCCOCCCOC(=O)c1ccccc1)c1ccccc1 | 9800 mg/kg
102 | CCCSP(=O)(OCC)Oc1ccc(Sc2ccc(Cl)cc2)cc1 (stereo unspecified) | 690 mg/kg
103 | O=C(NO)Nc1ccc(Cl)c(Cl)c1 | 1850 mg/kg
104 | NC(=O)Cc1c([O-])on[n+]1Cc1ccccc1 | 4450 mg/kg
105 | C=CCNC(=O)OCC(O)C1COc2ccccc2O1 (stereo unspecified) | 1500 mg/kg
106 | Cc1cc(=S)c(N)n[nH]1 | 1980 mg/kg
107 | COc1coc(CSP(=O)(OC)OC)cc1=O | 23 mg/kg
108 | CCOC(=O)[C@H](CCc1ccccc1)N[C@@H](C)C(=O)N1C(=O)N(C)C[C@H]1C(=O)O | 3540 mg/kg
109 | Cc1ccc(N=CN(C)Sc2ccc(Cl)cc2)c(C)c1 | 320 mg/kg
110 | C=CCc1ccc(OC(=O)NC)c(OC)c1 | 250 mg/kg
111 | CN(CCCn1cnc2c1c(=O)n(C)c(=O)n2C)c1ccccc1 | 1640 mg/kg
112 | CC(Cc1ccc2c(c1)OCO2)NCC(O)c1ccc(O)c(O)c1 (stereo unspecified) | 865 mg/kg
113 | CN(C)CCCOc1nn(Cc2ccccc2)c2ccccc12 | 740 mg/kg and 950 mg/kg
114 | O=C1c2cc(Cl)ccc2OC2CCON12 (stereo unspecified) | 1550 mg/kg
115 | CCn1cc(C(=O)O)c(=O)c2cc(F)c(N3CCNC(C)C3)c(F)c21 (stereo unspecified) | 3800 mg/kg and 1560 mg/kg
116 | Cc1ccc(OC(=O)c2ccccc2)cc1 | 2640 mg/kg
117 | CNC(=O)ON=C(CSC)C(C)(C)C | 8.5 mg/kg
118 | CC(C)(N)Cc1ccccc1 | 188 mg/kg
119 | CNC(=O)Oc1ccc(C)c(C)c1C | 318 mg/kg
120 | O=S(=O)(O)C(F)(F)F | 1610 mg/kg

Row | Structure (SMILES) | LD50
121 | CCC(=O)OC1(c2ccccc2)CCN(C)CC1CC (stereo unspecified) | 175 mg/kg
122 | CCCCc1c(C)nc(N(C)C)nc1O | 2350 mg/kg
123 | COc1cc2c(cc1OC)C(c1ccc(N)cc1)=NN=C(C)C2 | 128 mg/kg
124 | CCOCCOCCCO | 7060 mg/kg
125 | CCCCCCCC(=O)Oc1ccc(C)cc1 | 1600 mg/kg
126 | C=CC(=O)NCO | 474 mg/kg
127 | COc1ccc2cc([C@H](C)C(=O)OCCN3CCN(Cc4ccccc4)CC3)ccc2c1 | 1100 mg/kg
128 | CCC(C)(O)C#CC(C)(O)CC (stereo unspecified) | 1400 mg/kg
129 | Cc1cncc(C)n1 | 880 mg/kg
130 | CCc1cc2c(s1)N(C)C(=O)CN=C2c1ccccc1Cl | 1460 mg/kg
131 | CC1CC=CC2C3OC3(C)C(C)C3C(Cc4ccccc4)NC(=O)C23OC(=O)OC=CC(C)(O)C1=O (stereo unspecified) | 9.1 mg/kg
132 | CC(C)OP(=S)(OC(C)C)SCn1nc(-c2ccccc2)ccc1=O | 25000 mg/kg
133 | CCC(CC)c1cccc(OC(=O)NC)c1 | 87 mg/kg
134 | O=C(Cl)c1ccc(C(=O)Cl)cc1 | 2500 mg/kg
135 | CNC(=O)ON=CC(C)(C)OC | 15 mg/kg
136 | N#CCCN(CCN)CCN | 4550 mg/kg
137 | CC(=O)OC1CCC(N2CCCCC2)CC1 (stereo unspecified) | 1950 mg/kg
138 | O=C1OC(CCN2CCCCC2)OC1(c1ccccc1)c1ccccc1 (stereo unspecified) | 1500 mg/kg
139 | O=C(c1ccccc1)c1cccc2c1CCC2C(=O)O (stereo unspecified) | 41.1 mg/kg
140 | CCCCN(N=O)C(N)=O | 400 mg/kg
141 | ClC1=C(Cl)C2(Cl)C3C4OC(C5OC54)C3C1(Cl)C2(Cl)Cl (stereo unspecified) | 142 mg/kg
